This note sets out measurements from patent US11485731B2, “Compounds and methods useful in the treatment of a PRMT5-mediated disorder” (ARGONAUT THERAPEUTICS LIMITED, priority 2017, dated 2022).

Each structure is given as a SMILES string.

The IC50 is the concentration that inhibits the measured activity by half. High values mean weaker potency in that assay, low ones greater potency in that assay.

human PRMT5/MEP50, sequence (O14744 whole entry): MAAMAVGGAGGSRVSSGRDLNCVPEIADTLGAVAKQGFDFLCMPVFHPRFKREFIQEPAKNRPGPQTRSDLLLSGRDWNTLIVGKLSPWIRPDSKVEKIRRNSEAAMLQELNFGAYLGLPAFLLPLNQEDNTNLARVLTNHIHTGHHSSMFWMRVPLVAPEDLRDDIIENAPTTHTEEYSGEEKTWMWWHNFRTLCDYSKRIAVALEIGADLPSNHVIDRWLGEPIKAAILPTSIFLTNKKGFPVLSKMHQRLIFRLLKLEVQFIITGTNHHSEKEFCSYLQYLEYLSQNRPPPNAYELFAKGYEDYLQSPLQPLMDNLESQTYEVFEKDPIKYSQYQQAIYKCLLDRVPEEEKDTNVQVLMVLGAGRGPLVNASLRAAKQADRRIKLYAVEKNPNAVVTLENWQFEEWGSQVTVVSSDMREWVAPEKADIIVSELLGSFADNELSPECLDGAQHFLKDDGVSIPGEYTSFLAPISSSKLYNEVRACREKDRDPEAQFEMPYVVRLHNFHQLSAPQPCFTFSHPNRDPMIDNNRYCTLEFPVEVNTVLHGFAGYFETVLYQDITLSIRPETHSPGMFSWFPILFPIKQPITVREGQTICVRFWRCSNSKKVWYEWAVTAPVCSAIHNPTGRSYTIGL
human PRMT5/MEP50, sequence (Q9BQA1 whole entry partner): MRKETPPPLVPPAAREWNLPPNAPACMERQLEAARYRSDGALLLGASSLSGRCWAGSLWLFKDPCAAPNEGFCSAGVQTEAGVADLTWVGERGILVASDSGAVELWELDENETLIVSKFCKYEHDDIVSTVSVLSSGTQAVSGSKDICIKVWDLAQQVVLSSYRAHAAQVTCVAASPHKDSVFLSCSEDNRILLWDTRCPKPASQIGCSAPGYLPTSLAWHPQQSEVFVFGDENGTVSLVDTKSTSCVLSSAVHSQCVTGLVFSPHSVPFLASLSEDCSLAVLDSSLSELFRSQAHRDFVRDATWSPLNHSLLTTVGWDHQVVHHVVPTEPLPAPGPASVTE

The target in this assay is human PRMT5/MEP50 (Homo sapiens (Human), UniProt O14744). Briefly: PRMT5 chemiluminescent assay. Type of assay: biochemical. Conditions: human PRMT5/MEP50 expressed in HEK293 cells; biotinylated histone peptides; Histone H4 monomethyl R3 antibody; chemiluminescent readout. The protocol:
A PRMT5 chemiluminescent assay was used to measure the IC50 activity of PRMT5 of the compounds of Examples 1A to 7 above. Biotinylated histone peptides were synthesized and attached to 384-well plates. Compound serial dilutions were performed and added to the assay plate. Histone H4 monomethyl R3 antibody was obtained from Abcam. A master mix for each well was prepared and human PRMT5/MEP50 (expressed in HEK293 cells) diluted in assay buffer to a concentration of 5 ng/μL. The reaction was incubated and slowly rotated for 60 minutes at the point of PRMT5/MEP50 addition. The supernatant from the wells was removed and blocking buffer was added to each well and rotated for 10 minutes. The primary antibody was diluted and added to every well for 60 minutes, before it was removed and the wells washed. The horse raddish peroxidase (HRP)-coupled secondary antibody was diluted and added to each well with an incubation time of 30 minutes. The HRP chemiluminescent substrate was added to every well. The plate was read on a Flourstar Omega BMG Labtech instrument (Ortenberg, Germany) and the analysis of IC50 was performed using the Flourstar Omega BMG Labtech software.
`O=C(NC[C@H](O)CN1CCc2ccccc2C1)N1CCC[C@H](c2ccccn2)C1` (single isomer, unassigned) [Example 5E, (S)-N-((S)-3-(3,4-dihydroisoquinolin-2(1H)-yl)-2-hydroxypropyl)-3-(pyridin-2-yl)piperidine-1-carboxamide or (R)-N-((S)-3-(3,4-dihydroisoquinolin-2(1H)-yl)-2-hydroxypropyl)-3-(pyridin-2-yl)piperidine-1-carboxamide] gave an IC50 of 81 nM.
As for `O=C(OCCCN1CCc2ccccc2C1)N1CCC(c2ccccc2)C1` (stereo not shown) [Example 7, 3-(3,4-dihydroisoquinolin-2(1H)-yl)propyl 3-phenylpyrrolidine-1-carboxylate], the figure is 342 nM.
As for `O=C(NC[C@H](O)CN1CCc2ccccc2C1)N1CCC[C@H](c2ccccc2)C1` [Example 1AO, (R)-N-((S)-3-(3,4-dihydroisoquinolin-2(1H)-yl)-2-hydroxypropyl)-3-phenylpiperidine-1-carboxamide], the figure is 9 nM; as for `O=C(NCC(O)CN1CCc2ccccc2C1)N1CCCCC(c2ccccc2)C1` (stereo not shown) [Example 1CO, N-(3-(3,4-dihydroisoquinolin-2(1H)-yl)-2-hydroxypropyl)-3-phenylazepane-1-carboxamide], 17 nM.
As for `O=C(OCC(O)CN1CCc2ccsc2C1)N1CCc2ccccc2C1` (stereo not shown) [Example 4AB, 3-(4,7-dihydrothieno[2,3-c]pyridin-6(5H)-yl)-2-hydroxypropyl 3,4-dihydroisoquinoline-2(1H)-carboxylate], the figure is 1010 nM; as for `O=C(NCC(O)CN1CCc2ccccc2C1)N1CCC(C(=O)N2CCOCC2)CC1` (stereo not shown) [Example 1O, N-(3-(3,4-dihydroisoquinolin-2(1H)-yl)-2-hydroxypropyl)-4-(morpholine-4-carbonyl)piperidine-1-carboxamide], 51 nM.
The compound `O=C(NCC(O)CN1CCc2ccccc2C1)N1CCCc2ccccc21` (stereo not shown) [Example 2A, N-(3-(3,4-dihydroisoquinolin-2(1H)-yl)-2-hydroxypropyl)-3,4-dihydroquinoline-1(2H)-carboxamide] returned an IC50 of 87 nM.
As for `CC(=O)N1CCCN(C(=O)NC[C@@H](O)CN2CCc3ccccc3C2)CC1` [Example 1BB, (R)-4-acetyl-N-(3-(3,4-dihydroisoquinolin-2(1H)-yl)-2-hydroxypropyl)-1,4-diazepane-1-carboxamide], the figure is 51800 nM; as for `O=C(NCC(O)CN1CCc2ccccc2C1)N1CCc2ccccc21` (stereo not shown) [Example 2B, N-[2-hydroxy-3-(1,2,3,4-tetrahydroisoquinolin-2-yl)propyl]-2,3-dihydro-1H-indole-1-carboxamide], 8500 nM; as for `O=C(OC[C@H](O)CN1CCc2ccccc2C1)N1CC[C@H](c2ccccc2)C1` [Example 4L, (R)-3-(3,4-dihydroisoquinolin-2(1H)-yl)-2-hydroxypropyl (R)-3-phenylpyrrolidine-1-carboxylate], 13 nM.
As for `O=C(NC[C@H](O)CN1CCc2ccccc2C1)N1CCCC(c2ccccc2)C1` (stereo partly drawn) [Example 1AG, (S)-N-((S)-3-(3,4-dihydroisoquinolin-2(1H)-yl)-2-hydroxypropyl)-3-phenylpiperidine-1-carboxamide], the figure is 185 nM; as for `O=C(NC[C@H](O)CN1CCc2ccccc2C1)N1CCCN(C(=O)c2cccs2)CC1` [Example 1AW, (S)-N-(3-(3,4-dihydroisoquinolin-2(1H)-yl)-2-hydroxypropyl)-4-(thiophene-2-carbonyl)-1,4-diazepane-1-carboxamide], 7020 nM.
The compound `O=C(NCC(O)CN1CCc2ccccc2C1)N1CCC(Oc2ccccc2)CC1` (stereo not shown) [Example 1G, N-[2-hydroxy-3-(1,2,3,4-tetrahydroisoquinolin-2-yl)propyl]-4-phenoxypiperidine-1-carboxamide] came in with an IC50 of 568 nM.
As for `O=C(OCC(O)CN1CCc2ccccc2C1)N1CCCC1` (stereo not shown) [Example 3C, 2-hydroxy-3-(1,2,3,4-tetrahydroisoquinolin-2-yl)propyl pyrrolidine-1-carboxylate], the figure is 9560 nM.
Next, `O=C(NC[C@H](O)CN1CCc2ccccc2C1)N1CCCS(=O)(=O)CC1` [Example 1AV, (S)-N-(3-(3,4-dihydroisoquinolin-2(1H)-yl)-2-hydroxypropyl)-1,4-thiazepane-4-carboxamide 1,1-dioxide]: 3140 nM; `O=C(NC[C@H](O)CN1CCc2ccccc2C1)N1CCC[C@@H](c2ccccc2)C1` (single isomer, unassigned) [Example 5A, (S)-N-((S)-3-(3,4-dihydroisoquinolin-2(1H)-yl)-2-hydroxypropyl)-3-phenylpiperidine-1-carboxamide or (R)-N-((S)-3-(3,4-dihydroisoquinolin-2(1H)-yl)-2-hydroxypropyl)-3-phenylpiperidine-1-carboxamide]: 26 nM; `O=C(OCC(O)CN1CCc2ccccc2C1)N1CCCC(O)C1` (stereo not shown) [Example 4I, 3-(3,4-dihydroisoquinolin-2(1H)-yl)-2-hydroxypropyl 3-hydroxypiperidine-1-carboxylate]: 8830 nM.
As for `O=C(NCC(O)CN1CCc2sccc2C1)N1CCCc2ccccc21` (stereo not shown) [Example 1Y, N-(3-(6,7-dihydrothieno[3,2-c]pyridin-5(4H)-yl)-2-hydroxypropyl)-3,4-dihydroquinoline-1(2H)-carboxamide], the figure is 236 nM; as for `O=C(OCC(O)CN1CCc2ccccc2C1)N1CCC(C(=O)N2CCOCC2)CC1` (stereo not shown) [Example 4B, 3-(3,4-dihydroisoquinolin-2(1H)-yl)-2-hydroxypropyl 4-(morpholine-4-carbonyl)piperidine-1-carboxylate], 75 nM.
Regarding `O=C(NCC(O)CN1CCc2ccccc2C1)N1CCCC(Oc2ccccc2)C1` (stereo not shown) [Example 1H, N-[2-hydroxy-3-(1,2,3,4-tetrahydroisoquinolin-2-yl)propyl]-3-phenoxypiperidine-1-carboxamide], inhibition was half-maximal at 267 nM (IC50).
As for `CC(=O)N1CCN(C(=O)NCC(O)CN2CCc3ccccc3C2)CC1` (stereo not shown) [Example 1B, 4-acetyl-N-[2-hydroxy-3-(1,2,3,4-tetrahydroisoquinolin-2-yl)propyl]piperazine-1-carboxamide], the figure is 9910 nM.
Compound `O=C(OC[C@H](O)CN1CCc2ccccc2C1)N1CCc2ccccc2C1` [Example 4G, (R)-3-(3,4-dihydroisoquinolin-2(1H)-yl)-2-hydroxypropyl 3,4-dihydroisoquinoline-2(1H)-carboxylate] registered an IC50 of 8 nM.
As for `O=C(NCCCN1CCc2ccccc2C1)N1CCC(c2ccccc2)C1` (stereo not shown) [Example 6A, N-(3-(3,4-dihydroisoquinolin-2(1H)-yl)propyl)-3-phenyl pyrrolidine-1-carboxamide], the figure is 939 nM; as for `O=C(NC[C@H](O)CN1CCc2ccccc2C1)N1CCC[S+]([O-])CC1` (stereo partly drawn) [Example 1AU, N-((S)-3-(3,4-dihydroisoquinolin-2(1H)-yl)-2-hydroxypropyl)-1,4-thiazepane-4-carboxamide 1-oxide], 31200 nM.
Next, `CS(=O)(=O)N1CCCN(C(=O)NC[C@@H](O)CN2CCc3ccccc3C2)CC1` [Example 1BD, (R)-N-(3-(3,4-dihydroisoquinolin-2(1H)-yl)-2-hydroxypropyl)-4-(methylsulfonyl)-1,4-diazepane-1-carboxamide]: 58200 nM.
